Results published in patent US11505592B2, “Diagnosis and therapy of multiple sclerosis” (PRINDEX S.R.L., priority 2015, dated 2022).

Legend:
MO3-13 cells = assay: Determination of reactive oxygen species (DCF fluorescence) in MO3-13 cells; format: cell-based, human; conditions: 50 μM peptide 30 min, then 200 μg/ml IgG MS 30 min
Protocol: (§1) FIG. 10A: DDSK peptide reverts the effects of Ig from MS patients on ROS levels in MO3-13 cells. MO3-13 cells were grown to semi-confluence in 24 multiwell plates and incubated for 18 h in medium containing 0.2% FBS. The cells were washed twice with FBS free medium, incubated with 50 μM of DDSK for 30 min and then with 200 μg/ml of IgG from Control (IgGCtr) or MS (IgGMS) patients for 30 min. Then, the cells were incubated with 10 μM DCHF-DA for 10 min, washed three times and DCF fluorescence was measured using a plate reader fluorometer. The histograms show the mean+/−SEM values obtained in 5 different experiments from 7 control and 7 MS subjects. # p<0.05 vs IgGCtr; *p<0.05 vs IgGMS.
as §1, with “MO3-13” for “FIG. 10A: DDSK peptide reverts the effects of Ig from MS patients on ROS levels in MO3-13 cells. MO3-13”, “Scrambled peptide (Sc)” for “DDSK”, “obtained” for “obtained in 5 different experiments”, “3” for “7”, “subjects.” for “subjects. # p<0.05 vs IgGCtr;”, “IgGCtr.” for “IgGMS.”
ROS levels were determined using the membrane-permeant fluorogenic probe 5,6-carboxy-2′,7′-dichlorofluoresceindiacetate, DCHFDA (Molecular Probes, Leiden, the Netherlands). The assay was based on the fluorescence detection of dichlorofluorescein (DCF), formed by ROS-mediated oxidation of the non-fluorescent precursor, dichlorofluorescin.
MO3-13 cells were grown to semi-confluence in 24 multiwell plates (45000 cell/well) and incubated for 18 h in medium containing 0.2% FBS before the experiments. […] DCF fluorescence was measured using the plate reader Fluoroskan Ascent FL fluorometer (Thermo Electron Oy, Vantaa, Finland) and data analyzed by Ascent software.

CTRL sera = assay: PEPSCAN-based ELISA, binding of control (CTRL) sera to library peptides; design: species or system human; conditions: ELISA binding value, CTRLs n = 10
Excerpt: (§2) The linear and CLIPS peptides are synthesized based on the amino acid sequence of the target protein using standard Fmoc-chemistry and deprotected using […] with scavengers. The constrained peptides are synthesized on chemical scaffolds in order to reconstruct conformational epitopes, using Chemically Linked Peptides on Scaffolds (CLIPS) technology (Timmerman et al. (2007). For example, the single looped peptides are synthesized containing a dicysteine, which was cyclized by treating with alpha, alpha′-dibromoxylene and the size of the loop is varied by introducing cysteine residues at variable spacing. If other cysteines besides the newly introduced cysteines are present, they are replaced by alanine. The side-chains of the multiple cysteines in the peptides are coupled to CLIPS templates by reacting onto credit-card format polypropylene PEPSCAN cards (455 peptide formats/card) with a 0.5 mM solution of CLIPS template such as 1,3-bis (bromomethyl) benzene in ammonium bicarbonate (20 mM, pH 7.9)/acetonitrile (1:1(v/v)). The cards are gently shaken in the solution for 30 to 60 minutes while completely covered in solution. Finally, the cards are washed extensively with excess of H2O and sonicated in distrupt-buffer containing 1 percent SDS/0.1 percent beta-mercaptoethanol in PBS (pH 7.2) at 70° C. for 30 minutes, followed by sonication in H2O for another 45 minutes.
(§3) The binding of antibody to each peptide is tested in a PEPSCAN-based ELISA. The 455-well credit card format polypropylene cards containing the covalently linked peptides are incubated with primary antibody solution for example consisting of 1/1000 diluted serum in blocking solution, for example 4% horse serum, 5% ovalbumin (w/v) in PBS/1% Tween. After washing, the peptides are incubated with a 1/1000 dilution of antibody peroxidase conjugate for one hour at 25° C. After washing, the peroxidase substrate 2,2′-azino-di-3-ethylbenzthiazoline sulfonate (ABTS) and 2 microlitres of 3 percent H2O2 are added. After one hour, the color development are measured. The color development are quantified with a charge coupled device (CCD)-camera and an image processing system (Slootstra et al., 1996).
(§4) The raw data are optical values obtained by a CCD-camera calibrated to export absorption values compatible with a standard 96-well plate ELISA-reader. First the CCD-camera makes a picture of the card before peroxidase coloring and then again a picture after the peroxidase coloring. These two pictures are substracted from each other yielding a binding value for each peptide.
(§5) All peptides have been synthesized in a peptide array format and the binding of 20 different sera to all peptide libraries were measured in an ELISA based set up following the procedure described in detail in the method section “Peptide synthesis and screening assays”. In particular 2 sets of experiments were performed on the 2 libraries by using 2 different dilutions of the human patients sera. In the first set of experiment the 20 sera were used at 1:2500 dilutions, while in the second experiment the dilution of the sera was 1:1000. The binding of the different sera to all peptides was quantified and analyzed in detail (Tables 1 and 2, FIGS. 15A, B, C, D and […]

MS sera = assay: PEPSCAN-based ELISA, binding of MS sera to library peptides; design: species or system human; conditions: ELISA binding value, MS sera n = 9
Excerpt: as §2, §3, §4, §5

MS IgG = assay: Indirect ELISA of MS IgG binding to receptor peptides; design: species or system human; conditions: 100 μM peptide; 200 μg immunoglobulins
Protocol: FIG. 6: Dose-response curves of the interaction between MS sera and DDSK peptide. (A) Sera of Multiple Sclerosis patients and Control (control group is defined in material and method below) (200 μg) were incubated with different concentrations (50-100-250 μM) of peptide DDSK. For the detection, inventors used a secondary antibody anti human IgG conjugated with HRP and (3,3′,5,5′-Tetramethylbenzidine) TMB solution that was added for each well and incubated for 15-30 min. Equal volume of stopping solution (2 M H2SO4) was added to the plate and absorbance (optical density) of plate was read at 450 nm. The statistical analysis derived from 9 experiments. Values are mean±SEM. *P<0.05 MS vs CTRL (B) Linear representation of dose-response curve Values are mean±SEM. *P<0.05 MS vs CTRL.
FIGS. 7A, 7B, 7C and 7D: MS sera recognize specially receptor's peptides. […] Equal volume of stopping solution (2 M H2SO4) was added to the plate and absorbance (optical density) of plate was read at 450 nm. […]
A. Sera of Multiple Sclerosis patients and Control (200 μg) were incubated in absence (uncoated) or presence of 100 μM of DDSK peptide. […] Equal volume of stopping solution (2 M H2SO4) was added to the plate and absorbance (optical density) of plate was read at 450 nm. […]
Diluted peptide (20 μg/ml) was coated to the wells of a PVC microtiter plate and incubated at 4° C. overnight. […] For the detection, we used a secondary antibody anti human (recognized constant region of the patient antibody conjugated with HRP and (3,3′,5,5′-Tetramethylbenzidine) TMB solution that was added for each well and incubated for 15-30 min. Equal volume of stopping solution (2 M H2SO4) was added to the plate and absorbance (optical density) of plate was read at 450 nm.
To evaluate the peptide concentration to use for ELISA assay we performed a dose-response curve. […] (named DDSK in the figures) and the absorbance (optical density) of plate was read at 450 nm. […]

Row | Sequence | MEAN CTRL (CTRL sera; NOX2 library) | MEAN MS (MS sera; NOX2 library) | other results
1 | TWYAHNCRLQ [Scrambled peptides, scrambled peptide used as negative control, reference compound] | – | – | effect of peptide preincubation on ROS levels of IgG MS treated cells (MO3-13 cells): did not influence
2 | CSYLNFARKRIKNPEGCGDRQNESYLNFARKRC [SEQ ID NO: 125] | 430.35 | 786.389 | –
3 | QNESYLNFARKRIKN [SEQ ID NO: 63] | 309.65 | 610.778 | –
4 | CNESYLNFARKAAKNPC [SEQ ID NO: 86] | 411.15 | 702.222 | –
5 | CAVHNITVSEQKISEWCVSEQKISEWGKIKESC [SEQ ID NO: 123] | 392.5 | 697.000 | –
6 | CNSLMQLNDTRLYCSGEANTSDAFNWTC [Peptide 19] | – | – | MEAN CTRL (CTRL sera; 5HT2A receptor library): 299.55; MEAN MS (MS sera; 5HT2A receptor library): 564.11
7 | LYGYRWPLPSKL | – | – | binding of MS IgG to peptide respect to scrambled (MS IgG): bind specifically
8 | LNFARKRIK [SEQ ID NO: 59] | 294.6 | 557.056 | –
9 | CAVHNITVSEQKISEWCQNESYLNFARKRIKNC [SEQ ID NO: 126] | 370.15 | 685.667 | –
10 | CLNFARKRIKC [SEQ ID NO: 87] | 374.7 | 713.333 | –
11 | CDSKVFKEGSSLLACSGEANTSDAFNWTC [Peptide 37] | – | – | MEAN CTRL (CTRL sera; 5HT2A receptor library): 333.75; MEAN MS (MS sera; 5HT2A receptor library): 623.06
12 | CQKISEWGKIKAAPIPC [SEQ ID NO: 153] | 402.15 | 710.778 | –
13 | CLSSEGSLSPSSLSCMDILSEENTSLSSC [Peptide 26] | – | – | MEAN CTRL (CTRL sera; 5HT2A receptor library): 188.85; MEAN MS (MS sera; 5HT2A receptor library): 320.72
14 | CNSLMQLNDDTRLYCLSSEGSLSPSSLSC [Peptide 6] | – | – | MEAN CTRL (CTRL sera; 5HT2A receptor library): 249.55; MEAN MS (MS sera; 5HT2A receptor library): 418.89
15 | CFNVEWSVNARVNNSDCGDRQNESYLNFARKRC [SEQ ID NO: 129] | 423.15 | 792.889 | –
16 | CMQLNDDTRLYSNDCMDILSEENTSLSSC [Peptide 9] | – | – | MEAN CTRL (CTRL sera; 5HT2A receptor library): 212.40; MEAN MS (MS sera; 5HT2A receptor library): 379.67
17 | CVSEQKISEWGKIKESCQNESYLNFARKRIKNC [SEQ ID NO: 64] | 402.9 | 804.556 | –
18 | CQNESYLNFARKRIKNC [SEQ ID NO: 90] | 361.75 | 667.389 | –
19 | CGDRQNESYLNFARKRCVSEQKISEWGKIKESC [SEQ ID NO: 152] | 461.6 | 805.278 | –
20 | CEWSVNARVNNSDPYSCQNESYLNFARKRIKNC [SEQ ID NO: 103] | 372.8 | 714.944 | –
